Measurements reported in article PMC10976160, “Comparative Pharmacokinetics Research of 13 Bioactive Components of Jieyu Pills in Control and Attention Deficit Hyperactivity Disorder Model Rats Based on UPLC-Orbitrap Fusion MS” (Molecules, 2024).
Where two headings read alike, the source gives them in different places.

Assay: Pharmacokinetics in control rats after gavage of JYPs
Type: in vivo, Sprague Dawley (SD) rats
Details: for half-life / Tmax / AUC(0-inf) / AUC(0-t) / Cmax / MRT inf / MRT last: male, rat, plasma; for Tmax: po; for MRT inf: read-out: MRT(0-∞); for MRT last: read-out: MRT(0-t)
Excerpt: According to the established method for the analysis of serum biological samples, the pharmacokinetics of various components of rat serum were investigated after the administration of different dosages of JYPs to control rats.
For the control experiment, healthy male Sprague Dawley (SD) rats of SPF grade ([…] ± 20 g) were purchased from Sipeifu (Beijing) Biotechnology Co., Ltd. (Beijing, China), Animal Quality Certificate No. 110324220102348616. For the ADHD model rats, healthy male SHR rats of SPF grade, weighing 220 ± 20 g, were purchased from SBF (Beijing) Biotechnology Co., Ltd. (Beijing, China), License No. SCXK (Yu) 2019-0010. The animals were accommodated in the Animal Center of Henan University of Traditional Chinese Medicine, which successfully underwent an ethical audit with ethics number DWLL202208003. The animals were bred under controlled conditions at a temperature of 24 °C and a relative humidity of 50 ± 2%. Before the experiment, the animals abstained from eating for 12 h and had unrestricted access to water. The feeding and experimental research conducted on the experimental animals adhered to the laws outlined in the Management of Experimental Animals in Henan Province.
JYPs were ground into a fine powder and sieved through 60-mesh sieves; then, 20 g of fine JYP powder was taken, having been weighed precisely. A precise volume of 50 mL of pure water was added and mixed well to prepare a 0.4 g/mL suspension solution of JYPs, which was then stored in the refrigerator at 4 °C.
This study involved 24 healthy male SD rats with a body mass of 220 ± 20 g and 24 healthy male ADHD rats with a body mass of 220 ± 20 g. Subjects abstained from food for a duration of 12 h before the experiment and consumed water without restriction. Both kinds of rats were randomly divided into four groups: a blank group, given an equal dose of water intragastrically, and 3 different administration groups: rats given the equivalent human dose of JYPs by gavage in doses of 1.080 g/kg/d, 2.160 g/kg/d, and 4.320 g/kg/d. Tail vein blood was collected at 0.083, 0.25, 0.5, 0.75, 1, 1.5, 2, 3, 4, 6, 8, 12, 18, and 24 h after dosing. About 0.5 mL of blood was collected in sodium heparin centrifugal tubes, then centrifuged at 4 °C for 10 min at a speed of 3500r/min. We took the upper layer and placed it at −80 °C for preservation.
We took 200 μL of plasma, added 600 μL of methanol solution and 50 μL of internal standard (100 ng/mL), and subjected it to shaking for 5 min, followed by centrifugation at 4 °C at 12,000 r/min for 10 min. The supernatant was collected and allowed to dry, then reconstituted with 50 μL of 50% methanol and centrifuged at 4 °C at 14,000 r/min for a further 10 min. The supernatant after this process was taken as the test solution. A volume of 5 μL was used for UPLC-MS analysis. The drug concentration in plasma was calculated with the aid of the internal standard.
Chromatographic conditions: Hypersil GOLD (100 × 2.1 mm, 1.9 μm) column; column temperature 35 °C; mobile phase acetonitrile (A)/0.1% formic acid aqueous solution (B); gradient elution; gradient elution program: 0–0.5 min (95% B–95% B), 0.5–8 min (95% B–50% B), 8–14 min (50% B–20% B), 14–20 min (20% B–5% B), 20–22 min (5% B–5% B), 22–25 min (95% B–95% B); flow rate 0.2 mL/min; injection volume 5 μL.

[1] = Sprague Dawley, oral JYPs, range over compounds and doses, read-out: half-life (t1/2)
[2] = Sprague Dawley, oral JYPs, read-out: peak time (Tmax)
[3] = Sprague-Dawley, 1.08 g/kg/day, oral JYPs low dose 1.080 g/kg/d (1st of 3 values)
[4] = Sprague-Dawley, 1.08 g/kg/day, oral JYPs low dose 1.080 g/kg/d (1st of 3 values), read-out: t1/2 (converted)
[5] = Sprague-Dawley, 2.16 g/kg/day, oral JYPs medium dose 2.160 g/kg/d (2nd of 3 values)
[6] = Sprague-Dawley, 2.16 g/kg/day, oral JYPs medium dose 2.160 g/kg/d (2nd of 3 values), read-out: t1/2 (converted)
[7] = Sprague-Dawley, 4.32 g/kg/day, oral JYPs high dose 4.320 g/kg/d (3rd of 3 values)
[8] = Sprague-Dawley, 4.32 g/kg/day, oral JYPs high dose 4.320 g/kg/d (3rd of 3 values), read-out: t1/2 (converted)
[9] = Sprague-Dawley, 1.08 g/kg/day, oral JYPs low dose 1.080 g/kg/d (1st of 3 values), read-out: Tmax
[10] = Sprague-Dawley, 2.16 g/kg/day, oral JYPs medium dose 2.160 g/kg/d (2nd of 3 values), read-out: Tmax
[11] = oral JYPs high dose 4.320 g/kg/d (3rd of 3 values)
[12] = oral JYPs low dose 1.080 g/kg/d (1st of 3 values)
[13] = oral JYPs medium dose 2.160 g/kg/d (2nd of 3 values)
[14] = Sprague-Dawley, 4.32 g/kg/day, oral JYPs high dose 4.320 g/kg/d (3rd of 3 values), read-out: Tmax

| Structure (SMILES) | half-life [1] [h] | Tmax [2] [h] | AUC(0-inf) [3] [ng·h/mL] | AUC(0-t) [3] [ng·h/mL] | Cmax [3] [ng/mL] | MRT inf [3] [h] | half-life [4] [h] | AUC(0-t) [5] [ng·h/mL] | Cmax [5] [ng/mL] | MRT last [5] [h] | MRT inf [5] [h] | half-life [6] [h] | AUC(0-inf) [7] [ng·h/mL] | AUC(0-t) [7] [ng·h/mL] | Cmax [7] [ng/mL] | MRT last [7] [h] | MRT inf [7] [h] | half-life [8] [h] | Tmax [9] [h] | Tmax [10] [h] | also measured |
| --- | --- | --- | --- | --- | --- | --- | --- | --- | --- | --- | --- | --- | --- | --- | --- | --- | --- | --- | --- | --- | --- |
| C[C@H]1O[C@@H](O[C@H]2CC[C@@]3(C)[C@@H](CC[C@]4(C)[C@@H]3C=C[C@]35OC[C@@]6(CCC(C)(C)C[C@H]63)[C@@H](O)C[C@]54C)[C@]2(C)CO)[C@H](O)[C@@H](O[C@@H]2O[C@H](CO)[C@@H](O)[C@H](O)[C@H]2O)[C@H]1O [Saikosaponin A] | 7.52 to 13.7 | < 1 | 135 ± 49.8 | 120 ± 40.6 | 38.9 ± 10.4 | 9.57 ± 3.88 | 7.52 ± 2.66 | 149 ± 49.5 | 47.4 ± 11.7 | 6.42 ± 0.6 | 13.3 ± 9.41 | 10.8 ± 9.21 | 245 ± 44.7 | 221 ± 42.5 | 67.4 ± 14.2 | 6.07 ± 1.19 | 9.11 ± 3.69 | 7.8 ± 3.3 | 0.53 ± 0.22 | 0.39 ± 0.17 | AUMC(0-t) [11]: 1333.05± 317.31 ng/mL*(h)²; AUMC(0-ꝏ) [11]: 2265.45± 1085.76 ng/mL*(h)²; Clearances [11]: 4464.90 ± 760.17 mL/h; AUMC(0-t) [12]: 792.28± 390.55 ng/mL*(h)²; AUMC(0-ꝏ) [12]: 1355.37± 1006.84 ng/mL*(h)²; MRT(0-t) [12]: 6.55 ± 1.64 h; Vss [12]: 21125.87 ± 12315.99 mL; AUC(0-∞) [13]: 177.04 ± 46.52 ng·h/mL; AUMC(0-t) [13]: 935.87± 261.97 ng/mL*(h)²; AUMC(0-ꝏ) [13]: 2307.92± 1659.75 ng/mL*(h)²; Clearances [13]: 3201.17 ± 894.28 mL/h; Vss [13]: 42581.43 ± 30523.07 mL |
| C[C@H]1O[C@@H](O[C@H]2CC[C@@]3(C)[C@@H](CC[C@]4(C)[C@@H]3C=C[C@]35OC[C@@]6(CCC(C)(C)C[C@H]63)[C@H](O)C[C@]54C)[C@]2(C)CO)[C@H](O)[C@@H](O[C@@H]2O[C@H](CO)[C@@H](O)[C@H](O)[C@H]2O)[C@H]1O [Saikosaponin D] | 7.52 to 13.7 | < 1 | 97.3 ± 56.5 | 79.6 ± 44.6 | 21.5 ± 5.52 | 13.4 ± 4.81 | 11.4 ± 4.14 | 96.8 ± 29.3 | 30.1 ± 6.87 | 6.87 ± 0.65 | 13.3 ± 6.43 | 10.9 ± 6.69 | 157 ± 34.9 | 116 ± 12.3 | 41.8 ± 17.7 | 7.1 ± 1.12 | 16.6 ± 6.52 | 13.7 ± 5.61 | 0.43 ± 0.23 | 0.54 ± 0.1 | MRT last [3]: 7.08 ± 1.57 h; AUC(0-inf) [5]: 117 ± 33.2 ng·h/mL; Tmax [14]: 0.33 ± 0.13 h; AUMC(0-t) [11]: 830.12± 197.07 ng/mL*(h)²; AUMC(0-ꝏ) [11]: 2785.93± 1472.47 ng/mL*(h)²; Vss [11]: 68432.42 ± 15413.77 mL; AUMC(0-t) [12]: 592.40± 473.29 ng/mL*(h)²; AUMC(0-ꝏ) [12]: 1331.60± 1006.07 ng/mL*(h)²; Clearances [12]: 2081.51 ± 796.95 mL/h; Vss [12]: 27762.67 ± 16738.07 mL; AUMC(0-t) [13]: 662.12± 211.50 ng/mL*(h)²; AUMC(0-ꝏ) [13]: 1586.66± 988.85 ng/mL*(h)²; Vss [13]: 41378.73 ± 24017.48 mL |
| CCC/C=C1\OC(=O)C2=C1CCC=C2 [Z-Ligustilide] | 14.4 to 24 | < 2 | 40.8 ± 9.33 | 28.7 ± 8.22 | 3.37 ± 1.11 | 20.4 ± 8.24 | 15.4 ± 5.99 | 32.7 ± 6.04 | 4.47 ± 1.9 | 8.96 ± 0.63 | 32 ± 20.9 | 24 ± 16.9 | 53.4 ± 9.38 | 36.5 ± 7.42 | 5.27 ± 1.27 | 8.76 ± 0.37 | 21.6 ± 6.2 | 16.4 ± 5.4 | 1.67 ± 0.52 | 1.17 ± 0.41 | MRT last [3]: 8.54 ± 1.12 h; AUC(0-inf) [5]: 58.6 ± 20.7 ng·h/mL; Tmax [14]: 1.13 ± 0.44 h; AUMC(0-t) [11]: 319.41± 64.35 ng/mL*(h)²; AUMC(0-ꝏ) [11]: 1163.41± 438.24 ng/mL*(h)²; AUMC(0-t) [12]: 244.45± 72.75 ng/mL*(h)²; AUMC(0-ꝏ) [12]: 839.61± 369.47 ng/mL*(h)²; AUMC(0-t) [13]: 291.74± 50.18 ng/mL*(h)²; AUMC(0-ꝏ) [13]: 2206.47± 2197.92 ng/mL*(h)² |
